{"source": "patent US10294202B2", "about": "“Pyrrolidinones as herbicides” (FMC Corporation, priority 2013, dated 2019)", "key": {"barnyardgrass": {"tested_on": "barnyardgrass", "assay": "Test A pre-/postemergence herbicide test", "format": "in vivo, Echinochloa crus-galli", "details": "for Barnyardgrass plant response rating: Preemergence, visual rating on 0 to 100 scale (0 no effect, 100 complete control)", "outline": "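Seeds in loam–sand blend received preemergence directed soil spray; separately, plants 2–10 cm at one- to two-leaf stage received postemergence spray, both with test chemicals in non-phytotoxic solvent with surfactant. After ~10 days in greenhouse, injury rated visually against untreated controls, 0 (no effect) to 100 (complete control).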"}, "blackgrass": {"tested_on": "blackgrass", "assay": "Test C pre-/postemergence herbicide test", "format": "in vivo, Alopecurus myosuroides", "outline": "(§1)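 Pre-emergence: seeds sown in loam/sand blend and treated with compound in surfactant-containing solvent. Post-emergence: plants at 2–18 cm (1- to 4-leaf stage) in peat-based medium sprayed with the same formulation. Visual rating versus controls after 13–15 days in greenhouse, scale 0 (no effect) to 100 (complete control).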"}, "wheat (winter wheat)": {"tested_on": "wheat (winter wheat)", "assay": "Test C pre-/postemergence herbicide test", "format": "in vivo, Triticum aestivum", "outline": "as §1"}, "galium": {"tested_on": "galium", "assay": "Test C pre-/postemergence herbicide test", "format": "in vivo, Galium aparine", "details": "Preemergence; for Galium plant response rating: 31 g ai/ha", "outline": "as §1"}, "crabgrass, large": {"tested_on": "crabgrass, large", "assay": "Test C pre-/postemergence herbicide test", "format": "in vivo, Digitaria sanguinalis", "outline": "as §1"}, "foxtail, giant": {"tested_on": "foxtail, giant", "assay": "Test C pre-/postemergence herbicide test", "format": "in vivo, Setaria faberii", "outline": "as §1"}, "pigweed": {"tested_on": "pigweed", "assay": "Test C pre-/postemergence herbicide test", "format": "in vivo, Amaranthus retroflexus", "outline": "as §1"}, "soybean": {"tested_on": "soybean", "assay": "Test C pre-/postemergence herbicide test", "format": "in vivo, Glycine max", "outline": "as §1"}, "oat, wild": {"tested_on": "oat, wild", "assay": "Test C pre-/postemergence herbicide test", "format": "in vivo, Avena fatua", "outline": "as §1"}, "velvetleaf": {"tested_on": "velvetleaf", "assay": "Test C pre-/postemergence herbicide test", "format": "in vivo, Abutilon theophrasti", "outline": "as §1"}, "[1]": {"details": "Postemergence, 125 g ai/ha, 0 to 100 scale, 0 no effect, 100 complete control"}, "[2]": {"details": "Postemergence, 500 g ai/ha, 0 to 100 scale (0 no effect, 100 complete control)"}, "[3]": {"details": "preemergence, 500 g ai/ha, 0 to 100 scale (0 no effect, 100 complete control)"}, "[4]": {"details": "Postemergence, 31 g ai/ha, scale 0 (no effect) to 100 (complete control)"}, "[5]": {"details": "Postemergence, 62 g ai/ha, scale 0 to 100 (0 no effect, 100 complete control)"}, "[6]": {"details": "Postemergence, 125 g ai/ha, scale 0 to 100 (0 no effect, 100 complete control)"}, "[7]": {"details": "Preemergence, 62 g ai/ha, scale 0 to 100"}, "[8]": {"details": "Preemergence, 125 g ai/ha, scale 0 to 100 (0 no effect, 100 complete control)"}, "[9]": {"details": "Preemergence, 31 g ai/ha, scale 0 to 100 (0 no effect, 100 complete control)"}, "[10]": {"details": "125 g ai/ha, scale 0 to 100 (0 no effect, 100 complete control)"}, "[11]": {"details": "Preemergence, 31 g ai/ha, scale 0 to 100, 0 is no effect and 100 is complete control"}}, "data": [{"smiles": "O=C1NCC(c2ccc(F)c(Cl)c2)C1C(=O)Nc1ccccc1F", "note": "(stereo not shown) [Compound 60]", "values": [{"measurement": "Plant response rating, Barnyardgrass", "setting": "barnyardgrass; [1]", "value": 80}, {"measurement": "Plant response rating, Barnyardgrass", "setting": "barnyardgrass; [2]", "value": 90}, {"measurement": "Barnyardgrass plant response rating", "setting": "barnyardgrass; 125 g ai/ha", "value": 80}, {"measurement": "Plant response rating, Barnyardgrass", "setting": "barnyardgrass; [3]", "value": 90}, {"measurement": "Plant response rating, Blackgrass", "setting": "blackgrass; [4]", "value": 0}, {"measurement": "Plant response rating, Blackgrass", "setting": "blackgrass; [5]", "value": 0}, {"measurement": "Plant response rating, Blackgrass", "setting": "blackgrass; [6]", "value": 0}, {"measurement": "Plant response rating, Blackgrass", "setting": "blackgrass; [7]", "value": 10}, {"measurement": "Plant response rating, Blackgrass", "setting": "blackgrass; [8]", "value": 40}, {"measurement": "Blackgrass plant response rating", "setting": "blackgrass; [9]", "value": 0}, {"measurement": "Plant response rating, Wheat", "setting": "wheat (winter wheat); [4]", "value": 0}, {"measurement": "Plant response rating, Wheat", "setting": "wheat (winter wheat); [5]", "value": 0}, {"measurement": "Plant response rating, Wheat", "setting": "wheat (winter wheat); [6]", "value": 5}, {"measurement": "Plant response rating, Wheat", "setting": "wheat (winter wheat); [7]", "value": 0}, {"measurement": "Plant response rating, Wheat", "setting": "wheat (winter wheat); [8]", "value": 0}, {"measurement": "Plant response rating, Galium", "setting": "galium; 62 g ai/ha, scale 0 to 100", "value": 0}, {"measurement": "Plant response rating, Galium", "setting": "galium; [10]", "value": 5}, {"measurement": "Galium plant response rating", "setting": "galium; scale 0 to 100 (0 no effect, 100 complete control)", "value": 0}, {"measurement": "Plant response rating, Crabgrass, Large", "setting": "crabgrass, large; [4]", "value": 20}, {"measurement": "Plant response rating, Crabgrass, Large", "setting": "crabgrass, large; [5]", "value": 50}, {"measurement": "Plant response rating, Crabgrass, Large", "setting": "crabgrass, large; [6]", "value": 75}, {"measurement": "Plant response rating, Crabgrass, Large", "setting": "crabgrass, large; [7]", "value": 95}, {"measurement": "Plant response rating, Crabgrass, Large", "setting": "crabgrass, large; [8]", "value": 95}, {"measurement": "Crabgrass, Large plant response rating", "setting": "crabgrass, large; [9]", "value": 85}, {"measurement": "Plant response rating, Foxtail, Giant", "setting": "foxtail, giant; [4]", "value": 0}, {"measurement": "Plant response rating, Foxtail, Giant", "setting": "foxtail, giant; [5]", "value": 15}, {"measurement": "Plant response rating, Foxtail, Giant", "setting": "foxtail, giant; [6]", "value": 30}, {"measurement": "Plant response rating, Foxtail, Giant", "setting": "foxtail, giant; [7]", "value": 85}, {"measurement": "Plant response rating, Foxtail, Giant", "setting": "foxtail, giant; [8]", "value": 90}, {"measurement": "Foxtail, Giant plant response rating", "setting": "foxtail, giant; [9]", "value": 70}, {"measurement": "Plant response rating, Pigweed", "setting": "pigweed; [5]", "value": 20}, {"measurement": "Plant response rating, Pigweed", "setting": "pigweed; [6]", "value": 20}, {"measurement": "Plant response rating, Pigweed", "setting": "pigweed; [7]", "value": 10}, {"measurement": "Plant response rating, Pigweed", "setting": "pigweed; [8]", "value": 20}, {"measurement": "Plant response rating, Soybean", "setting": "soybean; [4]", "value": 0}, {"measurement": "Plant response rating, Soybean", "setting": "soybean; [5]", "value": 0}, {"measurement": "Plant response rating, Soybean", "setting": "soybean; [6]", "value": 5}, {"measurement": "Plant response rating, Soybean", "setting": "soybean; [7]", "value": 25}, {"measurement": "Plant response rating, Soybean", "setting": "soybean; [8]", "value": 25}, {"measurement": "Plant response rating, Oat, Wild", "setting": "oat, wild; [4]", "value": 0}, {"measurement": "Plant response rating, Oat, Wild", "setting": "oat, wild; [5]", "value": 0}, {"measurement": "Plant response rating, Oat, Wild", "setting": "oat, wild; [6]", "value": 0}, {"measurement": "Plant response rating, Oat, Wild", "setting": "oat, wild; [7]", "value": 0}, {"measurement": "Plant response rating, Oat, Wild", "setting": "oat, wild; [8]", "value": 5}, {"measurement": "Plant response rating, Velvetleaf", "setting": "velvetleaf; [4]", "value": 0}, {"measurement": "Plant response rating, Velvetleaf", "setting": "velvetleaf; [5]", "value": 0}, {"measurement": "Plant response rating, Velvetleaf", "setting": "velvetleaf; [6]", "value": 5}, {"measurement": "Plant response rating, Velvetleaf", "setting": "velvetleaf; [7]", "value": 0}, {"measurement": "Plant response rating, Velvetleaf", "setting": "velvetleaf; [8]", "value": 0}]}, {"smiles": "O=C1NCC(c2cccc(OC(F)(F)F)c2)C1C(=O)Nc1ccccc1F", "note": "(stereo not shown) [Compound 69]", "values": [{"measurement": "Plant response rating, Barnyardgrass", "setting": "barnyardgrass; [1]", "value": 70}, {"measurement": "Plant response rating, Barnyardgrass", "setting": "barnyardgrass; [2]", "value": 80}, {"measurement": "Barnyardgrass plant response rating", "setting": "barnyardgrass; 125 g ai/ha", "value": 80}, {"measurement": "Plant response rating, Barnyardgrass", "setting": "barnyardgrass; [3]", "value": 90}, {"measurement": "Blackgrass plant response rating", "setting": "blackgrass; [11]", "value": 0}, {"measurement": "Plant response rating, Blackgrass", "setting": "blackgrass; [7]", "value": 5}, {"measurement": "Plant response rating, Blackgrass", "setting": "blackgrass; [8]", "value": 30}, {"measurement": "Plant response rating (scale of 0 to 100), Blackgrass", "setting": "blackgrass; Preemergence, 250 g ai/ha", "value": 35}, {"measurement": "Wheat plant response rating", "setting": "wheat (winter wheat); [11]", "value": 0}, {"measurement": "Plant response rating, Wheat", "setting": "wheat (winter wheat); [7]", "value": 0}, {"measurement": "Plant response rating, Wheat", "setting": "wheat (winter wheat); [8]", "value": 5}, {"measurement": "Plant response rating (scale of 0 to 100), Wheat", "setting": "wheat (winter wheat); Preemergence, 250 g ai/ha", "value": 5}, {"measurement": "Galium plant response rating", "setting": "galium; scale 0 to 100, 0 is no effect and 100 is complete control", "value": 0}, {"measurement": "Plant response rating, Galium", "setting": "galium; 62 g ai/ha, scale 0 to 100", "value": 0}, {"measurement": "Plant response rating, Galium", "setting": "galium; [10]", "value": 5}, {"measurement": "Plant response rating (scale of 0 to 100), Galium", "setting": "galium; 250 g ai/ha", "value": 75}, {"measurement": "Crabgrass, Large plant response rating", "setting": "crabgrass, large; [11]", "value": 90}, {"measurement": "Plant response rating, Crabgrass, Large", "setting": "crabgrass, large; [7]", "value": 90}, {"measurement": "Plant response rating, Crabgrass, Large", "setting": "crabgrass, large; [8]", "value": 95}, {"measurement": "Plant response rating (scale of 0 to 100), Crabgrass, Large", "setting": "crabgrass, large; Preemergence, 250 g ai/ha", "value": 95}, {"measurement": "Foxtail, Giant plant response rating", "setting": "foxtail, giant; [11]", "value": 75}, {"measurement": "Plant response rating, Foxtail, Giant", "setting": "foxtail, giant; [7]", "value": 85}, {"measurement": "Plant response rating, Foxtail, Giant", "setting": "foxtail, giant; [8]", "value": 85}, {"measurement": "Plant response rating (scale of 0 to 100), Foxtail, Giant", "setting": "foxtail, giant; Preemergence, 250 g ai/ha", "value": 90}, {"measurement": "Pigweed plant response rating", "setting": "pigweed; [11]", "value": 15}, {"measurement": "Plant response rating, Pigweed", "setting": "pigweed; [7]", "value": 25}, {"measurement": "Plant response rating, Pigweed", "setting": "pigweed; [8]", "value": 25}, {"measurement": "Plant response rating (scale of 0 to 100), Pigweed", "setting": "pigweed; Preemergence, 250 g ai/ha", "value": 25}, {"measurement": "Soybean plant response rating", "setting": "soybean; [11]", "value": 0}, {"measurement": "Plant response rating, Soybean", "setting": "soybean; [7]", "value": 0}, {"measurement": "Plant response rating, Soybean", "setting": "soybean; [8]", "value": 0}, {"measurement": "Plant response rating (scale of 0 to 100), Soybean", "setting": "soybean; Preemergence, 250 g ai/ha", "value": 0}, {"measurement": "Plant response rating, Oat, Wild", "setting": "oat, wild; [7]", "value": 0}, {"measurement": "Plant response rating, Oat, Wild", "setting": "oat, wild; [8]", "value": 5}, {"measurement": "Plant response rating (scale of 0 to 100), Oat, Wild", "setting": "oat, wild; Preemergence, 250 g ai/ha", "value": 5}, {"measurement": "Velvetleaf plant response rating", "setting": "velvetleaf; [11]", "value": 30}, {"measurement": "Plant response rating, Velvetleaf", "setting": "velvetleaf; [7]", "value": 30}, {"measurement": "Plant response rating, Velvetleaf", "setting": "velvetleaf; [8]", "value": 30}, {"measurement": "Plant response rating (scale of 0 to 100), Velvetleaf", "setting": "velvetleaf; Preemergence, 250 g ai/ha", "value": 30}]}]}
